Assay results: US6608086B2, “Dihydropyridines and new uses thereof” (Synaptic Pharmaceutical Corporation, priority 1993, dated 2003)
Like-named read-outs stand apart in the source and are kept apart here.

What was measured:
[1] = biological target: T1, α1A Human Adrenergic Receptor (Homo sapiens, UniProt P25100); assay: Radioligand binding, [3H]prazosin, cloned human α1A adrenergic receptor; details: [3H]prazosin
T1 construct: The entire coding region of α1A (1719 bp); expressed in transfected cells
T1 sequence (P25100 1-572): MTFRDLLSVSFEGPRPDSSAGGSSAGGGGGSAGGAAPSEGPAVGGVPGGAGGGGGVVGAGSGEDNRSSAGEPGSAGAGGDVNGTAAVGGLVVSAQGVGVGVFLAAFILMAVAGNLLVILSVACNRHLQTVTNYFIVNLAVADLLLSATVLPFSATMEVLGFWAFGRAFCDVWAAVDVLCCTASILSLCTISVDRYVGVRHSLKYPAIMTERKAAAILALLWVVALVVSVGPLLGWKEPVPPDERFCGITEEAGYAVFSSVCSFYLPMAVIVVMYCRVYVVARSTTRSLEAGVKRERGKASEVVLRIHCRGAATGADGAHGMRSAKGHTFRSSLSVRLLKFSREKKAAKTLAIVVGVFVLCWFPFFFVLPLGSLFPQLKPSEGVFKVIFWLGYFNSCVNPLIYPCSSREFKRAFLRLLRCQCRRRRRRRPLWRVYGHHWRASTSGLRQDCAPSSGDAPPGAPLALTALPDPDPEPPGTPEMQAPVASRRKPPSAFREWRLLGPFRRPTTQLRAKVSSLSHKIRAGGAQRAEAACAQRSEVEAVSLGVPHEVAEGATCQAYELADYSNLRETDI
Method: (§1) The protocols for these experiments are given below.
(§2) These cell lines were prepared by transfecting the cloned cDNA or cloned genomic DNA or constructs containing both genomic DNA and cDNA encoding the human α-adrenergic receptors as follows:
α1A Human Adrenergic Receptor:
The cells were grown, in a controlled environment (37° C., 5% CO2), as monolayers in Dulbecco's modified Eagle's Medium (GIBCO, Grand Island, N.Y.) containing 25 mM glucose and supplemented with 10% bovine calf serum, 100 units/ml penicillin g, and 100 μg/ml streptomycin sulfate.
(§3) Radioligand Binding Assays:
(§4) Transfected cells from culture flasks were scraped into 5 ml of 5 mM Tris-HCl, 5 mM EDTA, pH 7.5, and lysed by sonication. The cell lysates were centrifuged at 1000 rpm for 5 min at 4° C., and the supernatant was centrifuged at 30,000× g for 20 min at 4° C. The pellet was suspended in 50 mM Tris-HCl, 1 mM MgCl2, and 0.1% ascorbic acid at pH 7.5. Binding of the α1 antagonist [^3H]prazosin (0.5 nM, specific activity 76.2 Ci/mmol) to membrane preparations of LM(tk−) cells was done in a final volume of 0.25 ml and incubated at 37° C. for 20 min. Nonspecific binding was determined in the presence of 10 μM phentolamine. The reaction was stopped by filtration through GF/B filters using a cell harvester.

[2] = biological target: T2, α1B Human Adrenergic Receptor (Homo sapiens, UniProt P35368); assay: Radioligand binding, [3H]prazosin, cloned human α1B adrenergic receptor
T2 construct: The entire coding region of α1B (1563 bp); expressed in transfected cells
T2 sequence (P35368 1-520): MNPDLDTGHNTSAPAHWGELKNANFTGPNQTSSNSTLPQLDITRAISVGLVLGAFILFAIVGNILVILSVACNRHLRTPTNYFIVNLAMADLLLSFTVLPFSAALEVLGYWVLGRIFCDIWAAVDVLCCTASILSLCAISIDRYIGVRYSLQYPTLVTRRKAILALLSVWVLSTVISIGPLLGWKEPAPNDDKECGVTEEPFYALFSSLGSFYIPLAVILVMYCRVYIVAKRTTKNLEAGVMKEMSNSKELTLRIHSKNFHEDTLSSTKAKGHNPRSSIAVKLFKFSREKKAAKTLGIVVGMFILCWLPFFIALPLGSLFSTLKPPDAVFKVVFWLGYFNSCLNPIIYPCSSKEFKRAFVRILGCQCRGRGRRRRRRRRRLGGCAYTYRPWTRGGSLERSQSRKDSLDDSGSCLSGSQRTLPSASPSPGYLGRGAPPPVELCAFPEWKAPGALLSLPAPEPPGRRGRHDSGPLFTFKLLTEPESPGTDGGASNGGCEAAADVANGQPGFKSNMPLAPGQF
Method: as §1, §2
α1B Human Adrenergic Receptor:
The construct involved ligating the full-length containing EcoRI brainstem cDNA fragment from λ ZapII into the expression vector. Stable cell lines were selected as described above.
as §3, §4

[3] = biological target: T3, α1C Human Adrenergic Receptor (Homo sapiens, UniProt P35348); assay: Radioligand binding, [3H]prazosin, cloned human α1C adrenergic receptor
T3 construct: The entire coding region of α1C (1401 bp); expressed in transfected cells
T3 sequence (P35348 1-466): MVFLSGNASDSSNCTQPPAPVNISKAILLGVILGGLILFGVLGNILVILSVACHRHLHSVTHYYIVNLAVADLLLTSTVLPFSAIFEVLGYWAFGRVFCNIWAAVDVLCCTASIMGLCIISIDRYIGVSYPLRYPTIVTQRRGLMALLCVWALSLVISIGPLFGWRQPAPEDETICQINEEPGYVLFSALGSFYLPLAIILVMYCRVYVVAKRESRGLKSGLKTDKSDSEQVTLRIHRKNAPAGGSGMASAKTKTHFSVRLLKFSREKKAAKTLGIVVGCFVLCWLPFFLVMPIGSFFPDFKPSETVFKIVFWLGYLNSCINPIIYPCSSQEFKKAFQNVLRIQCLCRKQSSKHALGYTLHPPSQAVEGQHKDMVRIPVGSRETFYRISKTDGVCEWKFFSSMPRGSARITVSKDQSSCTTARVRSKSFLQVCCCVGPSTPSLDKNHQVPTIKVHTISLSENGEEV
Method: as §1, §2
α1C Human Adrenergic Receptor:
The construct involved ligating three partial overlapping fragments: a 5′, 0.6 kb HincII genomic clone, a central 1.8 EcoRI hippocampal cDNA clone, and a 3′ 0.6Kb PstI genomic clone. The hippocampal cDNA fragment overlaps with the 5′ and 3′ genomic clones so that the HincII and PstI sites at the 5′ and 3′ ends of the cDNA clone, respectively, were utilized for ligation. This full-length clone was cloned into the KpnI site of the expression vector, using the 5′ and 3′ KpnI sites of the fragment, derived from vector (i.e., pBluescript) and 3′-untranslated sequences, respectively. Stable cell lines were selected as described above.
as §3, §4

[4] = cloned human receptor, LM(tk-) cell membranes, mean, read-out: PKi alpha-1 1a (converted)
[5] = cloned human receptor, LM(tk-) cell membranes, mean, read-out: PKi alpha-1 1b (converted)
[6] = cloned human receptor, LM(tk-) cell membranes, mean, read-out: PKi alpha-1 1c (converted)
[7] = cloned human α1A receptor, LM(tk−) cell membranes, read-out: pKi alpha-1 1a (converted)
[8] = cloned human α1B receptor, LM(tk−) cell membranes, read-out: pKi alpha-1 1b (converted)
[9] = cloned human α1C receptor, LM(tk−) cell membranes, read-out: pKi alpha-1 1c (converted)

melting point	Ki [1, 7] [nM]	Ki [2, 8] [nM]	Ki [3, 9] [nM]	Structure (SMILES)	Ki [1, 4] [nM]	Ki [2, 5] [nM]	Ki [3, 6] [nM]
90 to 95 °C (dec.)	112	87.1	1.82	CC1=C(C(N)=O)C(c2ccc([N+](=O)[O-])cc2)C(C(=O)NCCCN2CCC(c3ccccc3)(c3ccccc3)CC2)=C(COCCN=[N+]=[N-])N1 (stereo not drawn) [Example 154, 2-((2-Azidoethyl)oxy)methyl-5-carboxamido-1,4-dihydro-6-methyl-4-(4-nitro)phenyl-3-(N-(3-(4,4-diphenylpiperidin-1-yl)propyl))carboxamidopyridine]			
172 °C (dec.)	1780	955	5.75	CCNC(=O)C1=C(CC)NC(CC)=C(C(=O)NCCCN2CCC(c3ccccc3)(c3ccc(OC)cc3)CC2)C1c1ccc([N+](=O)[O-])cc1 (stereo not drawn) [Example 111, 2,6-Diethyl-5-(N-ethyl)carboxamido-1,4-dihydro-3-{N-[3-(4-(4-methoxy)phenyl-4-phenylpiperidin-1-yl)propyl]}carboxamido-4-(4-nitrophenyl)pyridine]			
135 °C (dec.)	1910	380	24	CC1=C(C(=O)O)C(c2ccc([N+](=O)[O-])cc2)C(C(=O)NCCCN2CCC(c3ccccc3)(c3ccccc3)CC2)=C(COCCN=[N+]=[N-])N1 (stereo not drawn) [Example 153, 2-((2-Azidoethyl)oxy)methyl-1,4-dihydro-6-methyl-4-(4-nitro) phenyl-3-(N-(3-(4,4-diphenylpiperidin-1-yl)propyl))carboxamidopyridine-5-carboxylic acid]			
120 to 125 °C (dec.)	832	407	3.47	CCC1=C(C(=O)O)C(c2ccc([N+](=O)[O-])cc2)C(C(=O)NCCCN2CCC(c3ccccc3)(c3ccccc3)CC2)=C(COC)N1 (stereo not drawn) [Example 136, 6-Ethyl-1,4-dihydro-2-(methyloxy)methyl-4-(4-nitro)phenyl-3-(N-(3-(4,4-diphenylpiperidin-1-yl)propyl))carboxamidopyridine-5-carboxylic acid]			
128 °C (dec.)	851	275	66.1	CCC1=C(C(=O)NC)C(c2ccc([N+](=O)[O-])cc2)C(C(=O)NCCCN2CCC(C(c3ccccc3)c3ccccc3)CC2)=C(CC)N1 (stereo not drawn) [Example 109, 2,6-Diethyl-1,4-dihydro-5-(N-methyl) carboxamido-4-(4-nitrophenyl)-3-{-[13-(4-diphenylmethylpiperidin-1-yl)propyl]}carboxamidopyridine]			
81 °C (dec.)				CC1=C(C(N)=O)C(c2ccc([N+](=O)[O-])cc2)C(C(=O)NCCCN2CCC(C#N)(c3ccccc3)CC2)=C(COCCN=[N+]=[N-])N1 (stereo not drawn) [Example 214, 2-((2-Azidoethyl)oxy)methyl-5-carboxamido-3-(N-(3-(4-cyano-4-phenylpiperidin-1-yl)propyl)) carboxamido-1,4-dihydro-6-methyl-4-(4-nitro)phenylpyridine]	2570	776	6.17

Further lines, the molecule ahead of its results:

Structure (SMILES)	melting point	Ki [1, 7] [nM]	Ki [2, 8] [nM]	Ki [3, 9] [nM]	Ki [1, 4] [nM]	Ki [2, 5] [nM]	Ki [3, 6] [nM]
CCOC(=O)C1(c2ccccc2)CCN(CCCNC(=O)C2=C(COCCN=[N+]=[N-])NC(CC)=C(C(=O)OC)C2c2ccc([N+](=O)[O-])cc2)CC1 (stereo not drawn) [Example 195, 2-[(2-Azidoethoxy)methyl]-3-{N-[3-(4-ethoxycarbonyl-4-phenylpiperidin-1-yl)propyl]}carboxamido-1,4-dihydro-6-ethyl-5-methoxycarbonyl-4-(4-nitrophenyl)pyridine]	56 to 57 °C				288	129	7.08
CNC(=O)C1=C(C)NC(C)=C(C(=O)NCCCN2CCC(C(=O)OC)(c3ccccc3)CC2)C1c1ccc2c(c1)OCCO2 (stereo not drawn) [Example 164, 4-(3,4-Ethylenedioxyphenyl)-1,4-Dihydro-3-{N-[3-(4-methoxycarbonyl-4-phenylpiperidin-1-yl)propyl]}carboxamido-2,6-dimethyl-5-[(N-methyl)carboxamido]pyridine]	101 to 104 °C				2950	1780	22.9
CCC1=C(C(=O)NC)C(c2ccc([N+](=O)[O-])cc2)C(C(=O)NCCCN2CCC(C(N)=O)(c3ccccc3)CC2)=C(CC)N1 (stereo not drawn) [Example 110, 3-{N-[3-(4-Carboxamido-4-phenylpiperidin-1-yl)propyl]}carboxamido-2,6-diethyl-1,4-dihydro-5-(N-methyl)carboxamido-4-(4-nitrophenyl)pyridine]	124 °C (dec.)	17800	31600	1550			
CCC1=C(C(=O)NC)C(c2ccc([N+](=O)[O-])cc2)C(C(=O)NCCCN2CCC(c3ccccc3)(c3ccc(OC)cc3)CC2)=C(CC)N1 (stereo not drawn) [Example 107]	133 °C (dec.)	871	1000	5.89			
CCOC(=O)C1(c2ccccc2)CCN(CCCNC(=O)C2=C(CC)NC(CC)=C(C(=O)NC)C2c2ccc([N+](=O)[O-])cc2)CC1 (stereo not drawn) [Example 181, 2,6-Diethyl-1,4-dihydro-3-{N-[3-(4-ethoxycarbonyl-4-phenylpiperidin-1-yl)propyl]}carboxamido-5-(N-methyl) carboxamido-4-(4-nitrophenyl)pyridine]	95 to 97 °C				3470	1070	4.07
CCOC(=O)C1(c2ccccc2)CCN(CCCNC(=O)C2=C(COCCN=[N+]=[N-])NC(CC)=C(C(=O)O)C2c2ccc([N+](=O)[O-])cc2)CC1 (stereo not drawn) [Example 189]	109 to 110 °C				4680	1410	26.3
